“And” between values parts separate entries of the source, which are not always exact repeats. Identical values can stand only once. Like-named read-outs stand apart in the source and are kept apart here.
Experiments:
hCA IX = target: T1, hCA IX (Homo sapiens, UniProt Q16790); assay: stopped-flow CO2 hydrase assay, hCA IX inhibition; assay type: biochemical; details: 6 h incubation of enzyme and inhibitor; mean from 3 different assays, errors 5-10%; read-out: KI (nM) CA IX
T1 construct: made in house
Method: (§1) For this reason, we herein report a 6 h incubation time instead.
(§2) An Applied Photophysics stopped-flow instrument was used for assaying the CA catalyzed CO2 hydration activity. […] The uncatalyzed rates were determined in the same manner and subtracted from the total observed rates. Stock solutions of inhibitor (0.1 mM) were prepared in distilled–deionized water and dilutions up to 0.01 nM were done thereafter with the assay buffer. Inhibitor and enzyme solutions were preincubated together for 6h at room temperature prior to assay, in order to allow for the formation of the E-I complex. The inhibition constants were obtained by non-linear least-squares methods using PRISM 3 and the Cheng–Prusoff equation and represent the mean from at least three different determinations. […] All CA isoforms were recombinant ones obtained in-house.

hCA II = target: T2, hCA II (Homo sapiens, UniProt P00918); assay: stopped-flow CO2 hydrase assay, hCA II inhibition; assay type: biochemical; details: 6 h incubation of enzyme and inhibitor; mean from 3 different assays, errors 5-10%; read-out: KI (nM) CA II
T2 construct: made in house
Method: as §1, §2

hCA XII = target: T3, hCA XII (Homo sapiens, UniProt O43570); assay: biochemical
T3 construct: made in house
Method: as §1, §2

hCA I = target: T4, hCA I (Homo sapiens, UniProt P00915); assay: stopped-flow CO2 hydrase assay, hCA I inhibition; assay type: biochemical; details: 6 h incubation of enzyme and inhibitor; mean from 3 different assays, errors 5-10%; read-out: KI (nM) CA I
T4 construct: made in house
Method: as §1, §2

[1] = 6 h incubation of enzyme and inhibitor, mean from 3 different assays, errors 5-10%, read-out: KI (nM) CA XII

T4 sequence (P00915 whole entry): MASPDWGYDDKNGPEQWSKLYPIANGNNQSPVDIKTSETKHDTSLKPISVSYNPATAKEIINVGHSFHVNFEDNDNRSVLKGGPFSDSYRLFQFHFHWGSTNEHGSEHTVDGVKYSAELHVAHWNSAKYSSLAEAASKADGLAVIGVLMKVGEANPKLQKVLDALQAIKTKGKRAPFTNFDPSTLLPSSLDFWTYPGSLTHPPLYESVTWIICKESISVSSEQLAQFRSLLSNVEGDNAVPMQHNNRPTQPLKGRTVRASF
T3 sequence (O43570 25-354): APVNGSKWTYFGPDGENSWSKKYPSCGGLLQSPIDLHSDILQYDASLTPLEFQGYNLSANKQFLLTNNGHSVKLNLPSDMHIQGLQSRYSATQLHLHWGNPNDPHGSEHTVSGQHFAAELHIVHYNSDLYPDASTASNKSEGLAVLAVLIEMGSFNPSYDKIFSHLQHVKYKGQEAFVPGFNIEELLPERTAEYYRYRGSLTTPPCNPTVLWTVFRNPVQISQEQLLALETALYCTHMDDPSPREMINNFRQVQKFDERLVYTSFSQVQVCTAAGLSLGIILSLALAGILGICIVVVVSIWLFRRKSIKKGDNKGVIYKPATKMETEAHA

| melting point [°C] | Ki (hCA IX) | Ki (hCA II) [nM] | Ki (hCA XII; [1]) [nM] | Ki (hCA I) [nM] | Ki (hCA XII) [nM] | Structure (SMILES) |
| --- | --- | --- | --- | --- | --- | --- |
| 181 to 182 | 559 nM | 9000 | 414 | 42600 |  | O=S1(=O)Oc2cc(O)ccc2-c2ccccc21 [Compound 26, 3-Hydroxydibenzo[c,e][1,2]oxathiine 6,6-dioxide] |
| 228 to 229 | 40800 nM | > 100000 |  | > 100000 | 78300 | O=C(Nc1cccc(Br)c1)C1=Cc2ccccc2OS1(=O)=O [Compound 40, N-(3-bromophenyl)benzo[e][1,2]oxathiine-3-carboxamide 2,2-dioxide] |
| 200 to 202 | 40.2 nM | > 100000 | 77.5 | > 100000 |  | O=[N+]([O-])c1cccc(COc2ccc3c(c2)OS(=O)(=O)C=C3)c1 [Compound 17, 7-((3-nitrobenzyl)oxy)benzo[e][1,2]oxathiine 2,2-dioxide] |
| 249 to 252 | 34300 nM | > 100000 |  | > 100000 | 59000 | O=C(Nc1ccc(Br)cc1)C1=Cc2ccccc2OS1(=O)=O [Compound 39, N-(4-bromophenyl)benzo[e][1,2]oxathiine-3-carboxamide 2,2-dioxide] |
| 268 to 269 | 755 nM | > 100000 | 654 | > 100000 |  | O=S1(=O)Oc2cc(OCc3ccc(F)cc3)ccc2-c2ccccc21 [Compound 28, 3-((4-fluorobenzyl)oxy)dibenzo[c,e][1,2]oxathiine 6,6-dioxide] |
| 231 to 233 | 8230 nM | > 100000 |  | > 100000 | 8550 | COc1ccc(NC(=O)C2=Cc3ccccc3OS2(=O)=O)cc1 [Compound 41, N-(4-methoxyphenyl)benzo[e][1,2]oxathiine-3-carboxamide 2,2-dioxide] |
| 232 to 235 | 681 nM | > 100000 | 911 | > 100000 |  | O=S1(=O)Oc2cc(OCc3ccccc3)ccc2-c2ccccc21 [Compound 27, 3-(benzyloxy)dibenzo[c,e][1,2]oxathiine 6,6-dioxide] |
| 239 to 241 | 61.4 nM | > 100000 | 136 | > 100000 |  | CC1=CS(=O)(=O)Oc2cc(OCc3cccc([N+](=O)[O-])c3)ccc21 [Compound 22, 7-((3-nitrobenzyl)oxy)-4-methylbenzo[e][1,2]oxathiine 2,2-dioxide] |
| 105 to 107 | 500 nM | 996 |  | 4620 | 564 | O=C(O)C1=Cc2ccccc2OS1(=O)=O [Compound 36, benzo[e][1,2]oxathiine-3-carboxylic acid 2,2-dioxide] |
| 172 to 175 | 81.7 nM | 3860 | 55 | 9960 |  | CC1=CS(=O)(=O)Oc2cc(O)ccc21 [Compound 12, 7-Hydroxy-4-methylbenzo[e][1,2]oxathiine 2,2-dioxide] |
| 180 to 183 | 1290 nM | > 100000 | 966 | > 100000 |  | COc1ccc2c(c1)OS(=O)(=O)c1ccccc1-2 [Compound 25, 3-methoxydibenzo[c,e][1,2]oxathiine 6,6-dioxide] |
| 192 to 195 | 3290 nM | > 100000 |  | > 100000 | 2300 | O=C(Nc1ccccc1)C1=Cc2ccccc2OS1(=O)=O [Compound 38, N-phenylbenzo[e][1,2]oxathiine-3-carboxamide 2,2-dioxide] |
| 165 to 167 | 55.6 nM |  | 28.3 | > 100000 |  | O=S1(=O)C=Cc2ccc(OCc3ccccc3)cc2O1 [Compound 13, 7-(Benzyloxy)benzo[e][1,2]oxathiine 2,2-dioxide] |
| 111 to 113 | 1630 nM | > 100000 |  | > 100000 | 2590 | CCOC(=O)C1=Cc2ccccc2OS1(=O)=O [Compound 34, ethyl benzo[e][1,2]oxathiine-3-carboxylate 2,2-dioxide] |
| 241 to 244 | 2430 nM | > 100000 |  | > 100000 | 1590 | COc1ccc2c(c1)OS(=O)(=O)C(C(=O)Nc1ccccc1)=C2 [Compound 43, 7-methoxy-N-phenylbenzo[e][1,2]oxathiine-3-carboxamide 2,2-dioxide] |
| 150 to 151 | 854 nM | 728 |  | 7140 | 408 | COc1ccc2c(c1)OS(=O)(=O)C(C(=O)O)=C2 [Compound 37, 7-methoxybenzo[e][1,2]oxathiine-3-carboxylic acid 2,2-dioxide] |
| 195 to 198 | 14.3 nM | > 100000 | 41.7 | > 100000 |  | CC1=CS(=O)(=O)Oc2cc(OCc3ccc(F)cc3)ccc21 [Compound 19, 7-((4-fluorobenzyl)oxy)-4-methylbenzo[e][1,2]oxathiine 2,2-dioxide] |
| 111 to 112 | 74.9 nM |  | 61.4 | > 100000 |  | COc1ccc2c(c1)OS(=O)(=O)C=C2 [Compound 9, 7-Methoxybenzo[e][1,2]oxathiine 2,2-dioxide] |
| 219 to 221 | 5420 nM | > 100000 |  | > 100000 | 3380 | COc1cccc(NC(=O)C2=Cc3ccccc3OS2(=O)=O)c1 [Compound 42, N-(3-methoxyphenyl)benzo[e][1,2]oxathiine-3-carboxamide 2,2-dioxide] |
| 215 to 217 | 68.9 nM and 69.8 nM | > 100000 | 94.7 | > 100000 |  | O=[N+]([O-])c1ccc(COc2ccc3c(c2)OS(=O)(=O)C=C3)cc1 [Compound 16, 7-((4-Nitrobenzyl)oxy)benzo[e][1,2]oxathiine 2,2-dioxide] |
| 238 to 240 | 4370 nM | > 100000 |  | > 100000 | 6550 | COc1ccc(NC(=O)C2=Cc3ccc(OC)cc3OS2(=O)=O)cc1 [Compound 46, N-(4-methoxyphenyl)-7-methoxybenzo[e][1,2]oxathiine-3-carboxamide 2,2-dioxide] |
| 248 to 251 | 898 nM | > 100000 | 1370 | > 100000 |  | O=[N+]([O-])c1cccc(COc2ccc3c(c2)OS(=O)(=O)c2ccccc2-3)c1 [Compound 31, 3-((3-nitrobenzyl)oxy)dibenzo[c,e][1,2]oxathiine 6,6-dioxide] |
| 249 to 252 | 615 nM | > 100000 | 566 | > 100000 |  | O=S1(=O)Oc2cc(OCc3cccc(F)c3)ccc2-c2ccccc21 [Compound 29, 3-((3-fluorobenzyl)oxy)dibenzo[c,e][1,2]oxathiine 6,6-dioxide] |
| 214 to 215 | 33.2 nM | > 100000 | 25.7 | > 100000 |  | CC1=CS(=O)(=O)Oc2cc(OCc3cccc(F)c3)ccc21 [Compound 20, 7-((3-fluorobenzyl)oxy)-4-methylbenzo[e][1,2]oxathiine 2,2-dioxide] |
| 157 to 159 | 55.8 nM |  | 42.5 | 16500 |  | O=S1(=O)C=Cc2ccc(O)cc2O1 [Compound 11, 7-Hydroxybenzo[e][1,2]oxathiine 2,2-dioxide] |
| 264 to 266 | 965 nM | > 100000 | 1060 | > 100000 |  | O=[N+]([O-])c1ccc(COc2ccc3c(c2)OS(=O)(=O)c2ccccc2-3)cc1 [Compound 30, 3-((4-nitrobenzyl)oxy)dibenzo[c,e][1,2]oxathiine 6,6-dioxide] |
| 174 to 175 | 49.8 nM | > 100000 | 8.6 | > 100000 |  | CC1=CS(=O)(=O)Oc2cc(OCc3ccccc3)ccc21 [Compound 18, 7-(benzyloxy)-4-methylbenzo[e][1,2]oxathiine 2,2-dioxide] |
| 167 to 169 | 1080 nM | > 100000 |  | > 100000 | 1530 | CCOC(=O)C1=Cc2ccc(OC)cc2OS1(=O)=O [Compound 35, ethyl 7-methoxybenzo[e][1,2]oxathiine-3-carboxylate 2,2-dioxide] |
| 272 to 275 | 51500 nM | > 100000 |  | > 100000 | 42500 | COc1ccc2c(c1)OS(=O)(=O)C(C(=O)Nc1ccc(Br)cc1)=C2 [Compound 44, N-(4-bromophenyl)-7methoxybenzo[e][1,2]oxathiine-3-carboxamide 2,2-dioxide] |
| 197 to 199 | 22.9 nM | > 100000 | 19.2 | > 100000 |  | O=S1(=O)C=Cc2ccc(OCc3ccc(F)cc3)cc2O1 [Compound 14, 7-((4-Fluorobenzyl)oxy)benzo[e][1,2]oxathiine 2,2-dioxide] |
